Source: patent US20080220056A1, “Treatment for liver disease” (UNIVERSITY OF SOUTHAMPTON, priority 2002, published 2008)

Columns and labels:
Type in all cases: cell-based
[1] = tested on: rat hepatic stellate cells; assay: TUNEL staining of cultured rat hepatic stellate cells; conditions: 1.5 μmol/L gliotoxin, two hours
Description: (§1) Rat and human hepatic stellate cells and rat liver tissue were fixed in 4% paraformaldehyde in PBS or 10% formalin in PBS, respectively, before being stained with Giemsa. DNA fragmentation was examined by labeling of 3′-OH DNA ends by the enzymatic addition of digoxygenin-labeled deoxyuridine triphosphate (dUTP) using terminal deoxynucleotidyl transferase using a kit from Boehringer essentially as described by the manufacturer. Rat liver tissue sections were pretreated with diethyl pyrocarbonate as described previously (Stahelin et al., J. Clin. Pathol. Mol. Pathol. (1998) 51:204-208) to reduce nonspecific reaction.
DNA strand breaks were also characterized by TUNEL staining. Culture-activated (14-day) rat hepatic stellate cells were treated with 0.05% (vol/vol) DMSO or 1.5 μmol/L gliotoxin for two hours and DNA strand breaks examined by TUNEL staining as outlined in Materials and Methods.

[2] = tested on: human hepatic stellate cells; assay: DNA cleavage in human hepatic stellate cells (ladder, propidium iodide, TUNEL); conditions: human HSC, gliotoxin
Procedure: (§2) Hepatic stellate cells cultured in 35-mm diameter dishes (Greiner) were harvested, pelleted by centrifugation and DNA fragmentation determined as outlined elsewhere (Elsharkawy et al., Hepatology (1999) 30:761-769). Propidium Iodide Flow-Activated Cell Sorting Analysis Detached cells were pelleted by centrifugation, washed in PBS, and resuspended in HYPO buffer (0.1% wt/vol) Na3Citrate and 0.1% (wt/vol) Triton™ X-100 containing […] propidium iodide and incubated for 1 hour. The cells were then analyzed by fluorescence-activated cell sorter (FACS) with a Becton Dickinson (San Jose, Calif.) FACScan instrument using a 488 nm excitation wavelength with a band pass filter set at 530 nm. Attached cells were scraped in HYPO buffer after washing cells with PBS.
as §1

rat hepatocytes [3] = assay: Rat hepatocyte viability by attachment and trypan blue exclusion; conditions: 50 μmol/L gliotoxin, four hours
Procedure: Rat hepatocytes were isolated by collagenase perfusion essentially as previously described. (Harvey et al., Biochemical J., (1998) 331:273-281). Hepatocytes were cultured as outlined for hepatic stellate cells except that they were initially seeded onto collagen coated plates in William's medium E supplemented with 10% fetal calf serum and 1 μg/mL insulin for the first 2 hours.
Cells were treated with gliotoxin dissolved in DMSO vehicle (added to medium from a 2000-fold molar concentrated stock). Control cells received DMSO vehicle only (i.e., 0.05% vol/vol). All other additions to culture medium were made from concentrated stocks dissolved in DMSO or by direct addition to culture medium. Protein contents of wells were determined using the Lowry assay (Lowry et al., J. Biol. Chem., (1951)193: 265-275).
The effect of various compounds on cell viability and attachment was determined. Viability of rat hepatocytes as judged by attachment and 0.1% (wt/vol) trypan blue exclusion after four hours treatment with: […]

rat hepatocytes [4] = assay: DNA laddering in rat hepatocytes; conditions: four hours; 50 μmol/L gliotoxin, 200 μmol/L chlorpromazine, 200 μmol/L methapyrilene, 10 ng/mL TNF-α with cycloheximide
Procedure: as §2
DNA laddering was also used to compare the effect of gliotoxin, chlorpromazine, methapyrilene and also the combination of TNF-α with cycloheximide on hepatocytes and hepatic stellate cells.

[5] = tested on: mitochondrial permeability transition in rat hepatic stellate cells; assay: Confocal microscopy of calcein/TMRM (mitochondrial permeability transition); conditions: 1.5 μmol/L gliotoxin
Procedure: Intracellular calcium concentrations were examined by preloading activated hepatic stellate cells seeded onto 35-mm diameter dishes with 2.5 μmol/L Fluo-3AM for two hours. Mitochondrial integrity was determined by coloading cells with […] TMRM and 1 μmol/M calcein-AM for three hours. After loading, the culture medium was removed and the cells were washed extensively with confocal buffer (145 mmol/L NaCl, 5 mml/L KCl, 1 mmol/L MgSO4, 1 mmol/L NaH2PO4, 10 mmol/L HEPES, 25 mmol/L glucose, 1 mmol/L CaCl2 and 2 mg/mL bovine serum albumin, pH 7.4) and incubated at 37° C. in 2 mL confocal buffer containing 1.5 μmol/L gliotoxin or DMSO vehicle control.
Fluorescence images were collected at 1 μm intervals using an Olympus BX50WI microscope fitted with the Biorad microradiance confocal scanning system.
Fluo-3 and calcein fluorescence were excited at 488 nm and collected at 515-530 nm using a band width filter. TMRM was excited at 543 nm and collected at wavelengths greater than 570 nm.
Culture activated rat hepatic cells (14 day) were loaded with calcein (green fluorescence) and TMRM (red fluorescence) and then treated with either 0.05% (vol/vol) DMSO vehicle or alternatively 1.5 μmol/L gliotoxin. Green fluorescence and red fluorescence were imaged at regular time points as outlined in Materials and Methods and the results obtained were typical for at least three separate experiments.

[6] = tested on: Fas and Fas ligand in human hepatic stellate cells; assay: Enzyme-linked immunosorbent assay for Fas and Fas ligand; conditions: TIMP-1 142.5 ng/ml, 18 hours, serum deprivation, versus BSA alone
Procedure: Human hepatic stellate cells were grown to confluence and exposed to BSA with and without TIMP-1. Cells and supernatants were harvested, and protein extracts were assayed for Fas and Fas ligand by commercial enzyme-linked immunosorbent assay following the manufacturer's instructions (Calbiochem). The quantities of Fas and Fas ligand were normalized to cell number by DNA quantification using the PicoGreen technique.
Experiments were next performed to determine whether TIMP-1 regulated Fas ligand cleavage in human hepatic stellate cells. Hepatic stellate cells were incubated for 18 hours in conditions of absolute serum deprivation with BSA or BSA with TIMP-1 (142.5 ng/ml). The cells were extracted, and supernatants were collected. After normalizing for cell number (by DNA concentration using the PicoGreen technique), these extracts were analyzed by enzyme-linked immunosorbent assay for Fas and Fas ligand as described under Materials and Methods. […] Supernatant Fas and Fas ligand protein levels were undetectable in all experimental conditions (data not shown, n 3).

[7] = tested on: rat hepatic stellate cells; assay: Hepatic stellate cell proliferation (tritiated thymidine); conditions: TIMP-1 1-100 ng/ml, 24 hour incubation, versus BSA carrier
Procedure: Hepatic stellate cells were cultured in 24-well tissue culture plates. These were washed with serum-free medium for 24 h, and then the cells were exposed to TIMP-1 at a concentration range of 1-100 ng/ml for 24 h and then pulsed with tritiated thymidine (0.5 μCi/well) for 18 hours before scintillation counting as previously described (Boulton et al., Clin. Sci., (1995) 88:119-130).

For `CN1C(=O)[C@]23CC4=CC=C[C@H](O)[C@H]4N2C(=O)[C@@]1(CO)SS3` [gliotoxin], the TUNEL staining [1] was “extensive TUNEL-positive staining”, the “DNA cleavage by propidium iodide or TUNEL staining” value [2] was “DNA cleavage was detected” and the “cleavage of DNA to oligonucleosomal-length fragments” value [2] was “did not cleave their DNA to oligonucleosomal-length fragments”. The “hepatocytes that do not exclude 0.1% (wt/vol) trypan blue” value (rat hepatocytes [3]) was “approximately 90%”, the “hepatocyte attachment to the substratum / membrane integrity” value (rat hepatocytes [3]; 10 ng/mL TNF-α with 10 μmol/L cycloheximide) was “significant reductions in cell attachment to the substratum” and the “cleavage of hepatocyte DNA to a nucleosomal ladder” value (rat hepatocytes [4]) was “only hepatocytes treated with TNF-α and cycloheximide cleaved their DNA to a nucleosomal ladder”. For the same compound, the “TMRM fluorescence (mitochondrial permeability)” value [5] was “loss of TMRM fluorescence at four hours”.

With “TIMP-1: recombinant tissue inhibitor of matrix metalloproteases 1 (Biogenesis)” the “cellular Fas or Fas ligand protein levels” value [6] was “had no effect on cellular Fas or Fas ligand protein levels” and the “proliferation of rat hepatic stellate cells” value [7] was “had no effect on proliferation”.
